{"source": "paper PMC6395383", "about": "“Participation of Gαi-Adenylate Cyclase and ERK1/2 in Mas Receptor Signaling Pathways” (Frontiers in Pharmacology, 2019)", "key": {"MasR [1]": {"tested_on": "MasR", "design": "method as in Gaidarov et al. (2018)", "conditions": "30 min forskolin pre-incubation, 60 min with ligand; ref Gaidarov et al. (2018); cited from earlier work"}, "HEK293T cells": {"tested_on": "HEK293T cells", "assay": "cAMP accumulation, forskolin-stimulated, in empty-vector (pcDNA 3.1) HEK293T cells", "assay_type": "cell-based, human", "conditions": "HEK293T transfected with empty vector; 1 mM IBMX, 1 μM forskolin; ligand 5 min; three independent experiments", "experimental": "For time-course assays, transfected cells were seeded in 24 wells dishes and after 24 h, 100% confluent cells were starved for 2 h and incubated 5 min in basal culture medium supplemented with 1 mM IBMX at 37°C, followed by exposure to 1 μM forskolin for 5, 10, 15, 30, or 60 min. In concentration response assays, transfected cells were seeded in 24 wells dishes after 24 h, 100% confluent cells were starved for 2 h and incubated 5 min in basal culture medium supplemented with 1 mM IBMX at 37°C, followed by 10 min exposure to 1 μM forskolin to increase basal cAMP levels, and incubated for 5 min with indicated concentrations of Ang-(1–7) or AVE 0991. For all cAMP determinations, the reactions were stopped by ethanol addition followed by centrifugation at 2,000 g for 10 min. The ethanol phase was then dried, and the residue resuspended in 50 mM Tris-HCl pH 7.4, 0.1% BSA. cAMP content was determined by competition of [^3H]cAMP for PKA, as previously described ([Davio et al., 1995])."}, "heart": {"tested_on": "heart", "conditions": "orally active; ref Ferreira et al., 2007; cited from earlier work", "from_the_text": "The physiological relevance of the constitutive activity of the MasR remains to be determined. Constitutive activity of GPCRs for various neurotransmitters contributes to basal neuronal activity ([Seifert and Wenzel-Seifert, 2002]). The mRNA encoding the MasR has been detected in various regions of the rat and mouse brain ([Young et al., 1988]; [Bunnemann et al., 1990]; [Martin et al., 1992]; [Metzger et al., 1995]). In addition, it has been reported that MasR-KO mice have alterations of the CNS ([Walther et al., 1998], [2000a],[b]). Thus, the constitutive activity of the MasR could play a reg ..."}, "human MasR": {"target": "T1, human MasR (Homo sapiens, UniProt P04201)", "T1 construct": "host or cells: HEK293T, transient transfection", "T1 sequence (P04201 1-325)": "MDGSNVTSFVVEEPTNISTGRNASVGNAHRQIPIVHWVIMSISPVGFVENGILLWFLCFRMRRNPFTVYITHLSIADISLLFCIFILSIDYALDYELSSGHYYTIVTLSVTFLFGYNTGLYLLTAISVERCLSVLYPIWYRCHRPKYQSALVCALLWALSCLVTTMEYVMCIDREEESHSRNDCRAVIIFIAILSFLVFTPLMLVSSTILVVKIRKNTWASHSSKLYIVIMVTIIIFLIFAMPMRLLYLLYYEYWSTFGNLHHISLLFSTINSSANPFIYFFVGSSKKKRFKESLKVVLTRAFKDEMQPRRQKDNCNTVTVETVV", "assay": "cAMP accumulation, forskolin-stimulated, in MasR-transfected HEK293T cells (competition of [^3H]cAMP for PKA)", "assay_type": "cell-based", "conditions": "1 mM IBMX", "experimental": "A pcDNA3.1(+)-myc-MasR expression construct corresponding to the human MasR (accession number: NM_002377.2) fused to the c-myc tag peptide at N-terminal was acquired from Life Technologies (Grand Island, NY, United States). An empty vector [pcDNA 3.1 (+)] was used both as negative control and to deliver an equal amount of plasmid per transfection in all the experiments.\nCultures were maintained at 37°C in humidified atmosphere containing 5% CO2. For transient transfections, cells were grown to 80–90% confluency and the cDNA constructs were transfected using the K2 Transfection System (Biontex, Munich, Germany). The transfection protocol was optimized as recommended by the suppliers. Assays were performed 48 h after transfection. […] The transfection protocol was optimized as recommended by the suppliers. Assays were performed 48 h after transfection.\nFor determination of cAMP basal levels, transfected cells were seeded in 12 wells dishes, 24 h later 100% confluent cells were starved for 2 h and pretreated, when indicated, for 1 h with pertussis toxin (100 ng/ml) and incubated later for 30 min in basal culture medium supplemented with 1 mM IBMX at 37°C. […] The ethanol phase was then dried, and the residue resuspended in 50 mM Tris-HCl pH 7.4, 0.1% BSA. cAMP content was determined by competition of [^3H]cAMP for PKA, as previously described ([Davio et al., 1995])."}, "MasR (A549 cells)": {"tested_on": "MasR (A549 cells)", "assay": "Intracellular Ca^2+ (Fura-2AM) in A549 cells transfected with pcDNA 3.1/myc-MasR", "assay_type": "cell-based, human", "conditions": "histamine 10^-4 M, same conditions (Figure 3E,F: empty vector or MasR)", "experimental": "An empty vector [pcDNA 3.1 (+)] was used both as negative control and to deliver an equal amount of plasmid per transfection in all the experiments.\nChanges in intracellular Ca^2+ concentration were measured using fura-2 acetoxymethyl ester (Fura-2AM) fluorescent indicator. […] Fluorescence was measured in a FlexStation 3 microplate reader (Molecular Devices Inc., San Jose, CA, United States). […] After 30 s of initial recording to determine basal levels, 100 nM Ang (1–7) or 100 μM histamine was added in 100 μl final volumes, and the time course of intracellular Ca^2+ mobilization was recorded for 180 s. […] Autofluorescence was quantified by measuring the fluorescence produced by an equivalent suspension of not-loaded cells. Results were expressed as the ratio of fluorescence’s 340/380 over basal. […]"}, "A549 cells": {"tested_on": "A549 cells", "assay": "Intracellular Ca^2+ (Fura-2AM) in A549 cells with endogenous MasR", "assay_type": "cell-based, human", "conditions": "histamine 10^-4 M, 340/380 ratio, 180 s, representative of three independent experiments", "experimental": "Changes in intracellular Ca^2+ concentration were measured using fura-2 acetoxymethyl ester (Fura-2AM) fluorescent indicator. A549 cells were seeded in 96 wells dishes for 24 h (90–100% confluence). […] Fluorescence was measured in a FlexStation 3 microplate reader (Molecular Devices Inc., San Jose, CA, United States). […] After 30 s of initial recording to determine basal levels, 100 nM Ang (1–7) or 100 μM histamine was added in 100 μl final volumes, and the time course of intracellular Ca^2+ mobilization was recorded for 180 s. […] Autofluorescence was quantified by measuring the fluorescence produced by an equivalent suspension of not-loaded cells. Results were expressed as the ratio of fluorescence’s 340/380 over basal. Basal levels were determined as the media of the recorded measurements in the first 30 s for each well."}, "[2]": {"tested_on": "rat proximal straight tubule", "conditions": "against 10^-12 and 10^-8 M Ang-(1–7); ref Garcia and Garvin (1994); cited from earlier work", "from_the_text": "(§1) The analysis of the interaction between Ang-(1–7) and the AT1R originated discrepancies. […] In addition, [Teixeira et al. (2017)] by performing competition binding assays using ..."}, "AT1R mRNA": {"tested_on": "AT1R mRNA", "assay": "AT1R mRNA by qPCR after siRNA transfection of HEK293T cells", "assay_type": "cell-based, human", "conditions": "siRNA 100 nM, 48 h after transfection, β-Actin, three independent experiments", "protocol": "HEK293T (human embryonic kidney) and A549 (human lung carcinoma) cells were cultured in Dulbecco’s modified Eagle’s medium (DMEM) supplemented with 10% fetal calf serum and 50 μg/ml gentamicin. Cultures were maintained at 37°C in humidified atmosphere containing 5% CO2. For transient transfections, cells were grown to 80–90% confluency and the cDNA constructs were transfected using the K2 Transfection System (Biontex, Munich, Germany). The transfection protocol was optimized as recommended by the suppliers. Assays were performed 48 h after transfection. […]\nTotal RNA was isolated from wild type or transfected HEK293T cells using Quick-Zol reagent (Kalium Technologies, Bernal, Argentina) following the manufacturer’s instructions. […] Quantitative real-time PCR (qPCR) was performed in triplicate on the Rotor Gene Q cycler (Qiagen, Hilden, Germany) using the resulting cDNA, the HOT FIREPol EvaGreen qPCR Mix Plus (Solis BioDyne, Tartu, Estonia) for product detection, and the following primers: human MasR (NM_002377.2) forward, 5′-[…] -3′ and reverse 5′-[…]-3′; human AT1R (M93394.1) forward, 5′-[…]-3′ and reverse, 5′-[…]-3′; human AT2R (NM_000686.4) forward, 5′-[…]-3′ and reverse 5′-[…]-3′; and human β-Actin forward, 5′-[…]-3′ and reverse 5′-[…]-3′. […]"}, "renal AT1R": {"tested_on": "renal AT1R", "conditions": "pM range; reference not clearly printed; cited from earlier work", "from_the_text": "as §1"}, "AT1R": {"tested_on": "AT1R", "conditions": "CHO-K1 cells; ref Kostenis et al., 2005; cited from earlier work", "from_the_text": "The modulation of the activity of ERK1/2 by Ang-(1–7) has been analyzed previously. […] Participation of the M ..."}, "AT1R (Homo sapiens) [3]": {"target": "AT1R (Homo sapiens) (UniProt P30556)", "sequence (P30556 whole entry)": "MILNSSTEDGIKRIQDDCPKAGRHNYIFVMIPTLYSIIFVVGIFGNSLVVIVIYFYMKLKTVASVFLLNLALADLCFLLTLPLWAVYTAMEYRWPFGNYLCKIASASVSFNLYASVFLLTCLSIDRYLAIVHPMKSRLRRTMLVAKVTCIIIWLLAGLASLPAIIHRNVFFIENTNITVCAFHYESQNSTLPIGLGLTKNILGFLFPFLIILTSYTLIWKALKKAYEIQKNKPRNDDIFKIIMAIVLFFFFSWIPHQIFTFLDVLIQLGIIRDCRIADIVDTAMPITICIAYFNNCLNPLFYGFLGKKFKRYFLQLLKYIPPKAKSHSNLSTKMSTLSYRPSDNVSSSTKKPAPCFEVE", "assay": "competition binding with 3H-Ang II", "conditions": "cited from earlier work"}, "AT1R (Homo sapiens) [4]": {"target": "AT1R (Homo sapiens) (UniProt P30556)", "assay": "competition binding", "conditions": "cited from earlier work"}, "MrgD receptor": {"tested_on": "MrgD receptor", "conditions": "ref Tetzner et al., 2016; cited from earlier work", "from_the_text": "(§2) The reasons for this discrepancy could rely on the different approaches used to detect the cAMP levels. We desig ..."}, "Mas receptor": {"tested_on": "Mas receptor", "conditions": "ref Tetzner et al., 2016; cited from earlier work", "from_the_text": "as §2"}, "MasR [5]": {"tested_on": "MasR", "design": "method as in 2 sources, one per row (each row's own in cited_ref): ref Bikkavilli et al., 2006; Shemesh et al., 2008; Zhang et al., 2012; Tirupula et al., 2014 ||| ref Dong et al., 2001", "conditions": "ref Dong et al., 2001; cited from earlier work"}}, "note": "Where a name gives a salt, the structure may show the parent alone. No end group written: not given here."}
{"molecule": "CCNC(=O)NS(=O)(=O)c1sc(CC(C)C)cc1-c1ccc(Cn2c(-c3ccccc3)nc(OC)c2C=O)cc1", "note": "[AVE 0991, 5-formyl-4-methoxy-2-phenyl-1-[[4-[2-ethylaminocarbonylsulfonamido-5-isobutil-3-thienyl]phenyl]-methyl]imidazole]", "values": [{"measurement": "forskolin-stimulated cAMP levels in MasR-transfected HEK293 cells", "setting": "MasR [1]", "result": "no change in forskolin-stimulated cAMP levels"}, {"measurement": "modulation of cAMP levels, empty vector", "setting": "HEK293T cells", "result": "did not alter cAMP levels"}, {"measurement": "heart dysfunction, AVE 0991", "setting": "heart", "result": "beneficial effects obtained in heart dysfunction"}, {"measurement": "modulation of cAMP levels", "setting": "human MasR; HEK293T overexpressing MasR, 1 μM forskolin, ligand 5 min", "result": "concentration-dependent decrease in the production of cAMP"}, {"measurement": "pEC50, concentration-dependent decrease in the production of cAMP", "setting": "human MasR; HEK293T transfected with pcDNA3.1/c-myc-MasR, 10 min 1 μM forskolin, then 5 min ligand, 37°C, mean ± SEM of three independent experiments", "result": "7.75 ± 0.40"}]}
{"molecule": "NCCc1c[nH]cn1", "note": "[histamine, histamine dihydrochloride]", "values": [{"measurement": "intracellular Ca^2+ levels, transfected A549 cells, positive control", "setting": "MasR (A549 cells)", "result": "important increase in Ca^2+ levels"}, {"measurement": "intracellular Ca^2+ levels, A549 cells (endogenous MasR), positive control", "setting": "A549 cells", "result": "significant increase in cytosolic Ca^2+ levels"}]}
{"molecule": "CCCCc1nc(Cl)c(CO)n1Cc1ccc(-c2ccccc2-c2nn[nH]n2)cc1", "note": "[losartan]", "values": [{"measurement": "block of Ang-(1–7) effects on absorption", "setting": "[2]", "result": "both effects were blocked by losartan"}]}
{"molecule": "AT1R siRNA: human AT1R siRNA (AUACGUGACUGUAGAAUUG) (chemistry not given here)", "values": [{"measurement": "reduction of AT1R mRNA levels versus scrambled siRNA", "setting": "AT1R mRNA", "result": "~50", "unit": "%"}]}
{"molecule": "Ang II: angiotensin II, of the classical RAS axis (DRVYIHPF; Angiotensin-2; UniProt P01019 25-32, looked up)", "values": [{"measurement": "affinity of renal AT1R on proximal tubules", "setting": "renal AT1R", "result": "very high affinity for Ang II (in the pM range)"}, {"measurement": "Ang II-induced IP1 production and Ca^2+ increase on MasR/AT1R coexpression", "setting": "AT1R", "result": "significantly decreased both the Ang II-induced production of IP1 and the increase of intracellular Ca^2+ levels mediated by the AT1R"}]}
{"molecule": "Angiotensin-(1-7) (from UniProt P01019)", "values": [{"measurement": "Ki", "setting": "AT1R (Homo sapiens) [3]", "result": 0.2, "unit": "µM"}, {"measurement": "Ki", "setting": "AT1R (Homo sapiens) [4]", "result": 0.36, "unit": "µM"}]}
{"molecule": "D-Ala7-Ang-(1–7)", "values": [{"measurement": "antagonism of Ang-(1–7)-induced cAMP increase, HEK293 overexpressing MrgD", "setting": "MrgD receptor", "result": "blocked"}, {"measurement": "antagonism of Ang-(1–7)-induced cAMP increase, HEK293 overexpressing Mas", "setting": "Mas receptor", "result": "blocked"}]}
{"molecule": "D-Pro7-Ang-(1–7)", "values": [{"measurement": "antagonism of Ang-(1–7)-induced cAMP increase, HEK293 overexpressing MrgD", "setting": "MrgD receptor", "result": "blocked"}, {"measurement": "antagonism of Ang-(1–7)-induced cAMP increase, HEK293 overexpressing Mas", "setting": "Mas receptor", "result": "blocked"}]}
{"molecule": "NPFF: neuropeptide FF (FLFQPQRF; ends and bridges not checked; UniProt O15130 69-76, looked up)", "values": [{"measurement": "conventional G protein signaling, NPFF", "setting": "MasR [5]", "result": "conventional G protein signaling has been reported"}]}
